Results taken from US11478440B2, “Combination of Elafibranor or derivatives thereof with an anti-NASH, anti-fibrotic or anti-cholestatic agent” (GENFIT, priority 2017, dated 2022).

Columns and labels:
[1] = system: fibrosing NASH-model of rats fed a CDAA+1% cholesterol diet; test: Chronic CDAA+1% cholesterol rat model: liver histology (picrosirius fibrosis surface, NASH lesions); format: in vivo, Wistar rats
Procedure: (§1) The preventive effects of Elafibranor alone, OCA alone and the combination of both were assessed in a fibrosing NASH-model of rats fed a CDAA+1% cholesterol diet. 150-175 g male Wistar rats were fed a control (CSAA) diet, CDAA+1% cholesterol diet, or CDAA+1% cholesterol diet supplemented with Elafibranor 1, 3 and 10 mg/kg/day, OCA 10 and 30 mg/kg/day or combined drugs (Elafibranor 1, 3 and 10 mg/kg/day combined to OCA 10 mg/kg/day) for 12 weeks.
(§2) The body weight and the food intake were monitored twice per week. On the last day of treatment, rats were sacrificed after a 6 h fasting period. The liver was rapidly excised for biochemical and histological studies.
The liver slices were first fixed for 12 hours in formalin 4% solution. Then, the liver pieces were washed 30 minutes in PBS, and dehydrated in ethanol solutions (successive baths at 70, 80, 95 and 100% ethanol). The liver pieces were incubated in three different baths of Xylene (Sigma-Aldrich cat #534056), followed by two baths in liquid paraffin (56° C.). Liver pieces were then put into racks that were gently filled with HISTOWAX to completely cover the tissue.
The paraffin blocks containing the tissue pieces were removed from the racks and stored at room temperature. The liver blocks were cut into 3 μm slices.
Liver sections were deparaffinized, rehydrated and incubated for 3 minutes in Mayer's Hematoxylin (Microm, cat #F/C0303). Then, the liver sections were rinsed in water and incubated 1 minute in Eosin G (VWR, cat #1.09844.1000). Sections were rinsed in water then dehydrated, and mounted using the CV Mount medium (Leica, cat #14046430011).
Liver sections were deparaffinized, rehydrated and incubated for 15 minutes in a solution of Fast Green FCF 0.1% (Sigma-Aldrich, cat #F7258) before rinsing in a bath of 0.5% acetic acid (Panreac, cat #131008.1611). Then, the liver sections were rinsed in water and incubated 30 minutes in a solution of 0.1% sirius red (Direct Red 80, Fluka cat #43665) in saturated aqueous picric acid (Sigma-Aldrich cat #P6744). Sections were then dehydrated, and mounted using the CV Mount medium (Leica, cat #14046430011).
A technician blinded to the source of each liver specimen performed histological examinations. Virtual slides were generated using the Pannoramic 250 scanner from 3D Histech. For each animal, a score summarizing the main histological lesions of NASH was attributed according to the NASH Clinical Research Network (Kleiner 2005, Brunt 1999). Briefly, steatosis, lobular inflammation and hepatocytes ballooning were scored. The NAFLD Activity Score (NAS score) was established for each individual as the unweighted sum of the steatosis (0-3), lobular inflammation (0-3) and the ballooning (0-2) injury grading.
Using Quant Center software (3D Histech, including Pattern Quant and Histo Quant modules), collagen-stained areas were quantified. Briefly, Pattern Quant was used to detect the tissue and measure its surface. Then, Histo Quant was used to detect the stained collagen content and measure its surface, based on a color threshold method. The fibrosis area was then expressed as the percentage of the collagen surface to the whole tissue per animal.

[2] = system: fibrosing NASH-model of rats fed a CDAA+1% cholesterol diet; test: Chronic CDAA+1% cholesterol rat model: hepatic gene expression (qPCR); format: in vivo, Wistar rats; settings: liver; GFT505 3 mg/kg/d, OCA 10 mg/kg/d, alone or combined; 12 weeks
Procedure: as §1, §2
Total RNA was isolated from rat livers using RNeasy Mini Kit (Qiagen) following manufacturer's instructions. Total RNA were reverse transcribed into cDNA using M-MLV RT (Moloney Murine Leukemia Virus Reverse Transcriptase) (Invitrogen cat #28025) in 1×RT buffer (Invitrogen), 0.5 mM DTT (Invitrogen), 0.18 mM dNTPs (Promega), 200 ng pdN6 (Amersham) and 30 U of RNase inhibitor (Promega).
Quantitative PCR was then carried out using the CFX96 TOUCH Real-Time PCR Detection System (Biorad). Briefly, the PCR reactions were performed in 96-WP format in 25 μl of total volume containing 1 μL of reverse transcription reaction, 0.5 μL of reverse and forward primers (10 pmol each), and 12.5 μl of 2×iQ SYBR Green Supermix (BioRad), using the following primer sequences:
Expression levels were normalized using the expression of RPLP0 gene as a housekeeping gene of reference in samples. For each gene, the standard curves were drawn by selecting the best points (at least three points) in order to have PCR reaction efficiency close to 100% and a correlation coefficient close to 1. Expression levels were determined using the standard curve equation for both the housekeeping gene and the target gene (taking into account the specific PCR efficiency of each target gene).

NASH = settings: over 800 patients and healthy volunteers; cited from earlier work
[3] = up to 2-year carcinogenicity studies; cited from earlier work

**Q.** For “1-[4-methylthiophenyl]-3-[3,5-dimethyl-4-carboxydimethylmethyloxyphenyl]prop-2-en-1-one [Elafibranor]”, which fibrosis development ([1]; CDAA/chol diet rats, 12 weeks) is on record?
**A.** Its fibrosis development is “very significant attenuation of fibrosis development”.

**Q.** And the “hepatocyte damage as judged by ballooning” value ([1]; CDAA/chol diet rats, 12 weeks)?
**A.** The value was “prevented or attenuated by elafibranor, in a dose-dependent manner”.

**Q.** And the lobular inflammation ([1]; CDAA/chol diet rats, 12 weeks)?
**A.** The lobular inflammation was “attenuated by elafibranor in a dose-dependent manner”.

**Q.** And the “Fibrosis surface, percentage over the untreated CDAA + 1% cholesterol rats” value ([1]; GFT505 3 mg/kg/d, OCA 10 mg/kg/d, alone or combined, 12 weeks in diet)?
**A.** The value was 34% ± 17%.

**Q.** What about the “CCR5 mRNA level (marker of inflammation), percentage over the untreated CDAA + 1% cholesterol rats” value [2] of the same substance?
**A.** Its value is 103% ± 51%.

**Q.** What about the “TGFβ1 mRNA level, percentage over the untreated CDAA + 1% cholesterol rats” value [2] of the same substance?
**A.** Its value is 94% ± 20%.

**Q.** And the “TIMP1 mRNA level, percentage over the untreated CDAA + 1% cholesterol rats” value [2]?
**A.** Its value is 78% ± 23%.

**Q.** And the “αSMA mRNA level, percentage over the untreated CDAA + 1% cholesterol rats” value [2]?
**A.** Its value is 66% ± 27%.

**Q.** And the “clinical properties for NASH (liver markers, insulin sensitivity, plasma lipids, anti-inflammatory)” value (NASH)?
**A.** The value was “has demonstrated beneficial properties for NASH”.

**Q.** And the safety concern [3]?
**A.** Its safety concern is “absence of safety concern”.
